Reference: paper PMC3201017, “Modification of the loops in the ligand-binding site turns avidin into a steroid-binding protein” (BMC Biotechnology, 2011)
Numbering of substitutions follows the chain as printed. Where a name gives a salt, the structure may show the parent alone.

How the values were obtained:
[1] = biological target: T1, sbAvd-2 (steroid-binding avidin mutant) (Gallus gallus, UniProt P02701, D37R/L38M/G39N/S40H/T59A/A60T/T62N); test: microplate binding to immobilized HSA-conjugated progesterone
T1 construct: gene AVD; full avidin core, homotetramer, produced in E. coli
T1 sequence (P02701 25-152 D37R/L38M/G39N/S40H/T59A/A60T/T62N): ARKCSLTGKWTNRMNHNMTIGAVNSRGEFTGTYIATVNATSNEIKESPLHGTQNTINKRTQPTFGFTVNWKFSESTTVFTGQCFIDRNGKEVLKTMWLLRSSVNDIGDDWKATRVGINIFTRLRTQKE

[2] = biological target: T2, sbAvd-1 (steroid-binding avidin mutant) (Gallus gallus, UniProt P02701, D37R/L38M/G39N/S40H); test: as above
T2 construct: gene AVD; full avidin core, homotetramer, produced in E. coli

[3] = biological target: T1, sbAvd-2 (steroid-binding avidin mutant); test: SPR competition on testosterone-BSA chip, […] inhibitor
[4] = biological target: T2, sbAvd-1 (steroid-binding avidin mutant); test: as above
[5] = biological target: the molecule itself; test: SEC; FPLC gel-filtration, Superdex 200 10/300 GL, calibrated with a molecular-mass standard; 20 mM sodium phosphate pH 7.4, 1 M NaCl, 20 mM imidazole; 90-193 μg protein in 500 μl

Molecule: CC(=O)[C@H]1CC[C@H]2[C@@H]3CCC4=CC(=O)CC[C@]4(C)[C@H]3CC[C@]12C [PRO, progesterone]
- microplate binding to immobilized HSA-conjugated progesterone [1]: these modified Avds showed clear binding to testosterone and progesterone
- microplate binding to immobilized HSA-conjugated progesterone [2]: sbAvd-1 also binds other steroid hormones, such as progesterone and DHEAS

Molecule: C[C@]12CC[C@H](OS(=O)(=O)O)CC1=CC[C@@H]1[C@@H]2CC[C@]2(C)C(=O)CC[C@@H]12 [DHEAS, dehydroepiandrosterone sulfate]
- SPR competition on testosterone-BSA chip, 50 μM inhibitor [3]: The binding of sbAvd-2 to testosterone was found to be most efficiently inhibited by testosterone and DHEAS
- SPR competition on testosterone-BSA chip, 50 μM inhibitor [4]: SbAvd-1 was found to be cross-reactive with androgens highly similar to testosterone (DHEAS and androstenedione)

B1: steroid-binding avidin mutant sbAvd-1 (designed binder)
chain: ARKCSLTGKWTNRMNHNMTIGAVNSRGEFTGTYITAVTATSNEIKESPLHGTQNTINKRTQPTFGFTVNWKFSESTTVFTGQCFIDRNGKEVLKTMWLLRSSVNDIGDDWKATRVGINIFTRLRTQKE
notes: chicken avidin (Avd) with the loop between beta-strands 1 and 2 (N12, D13, L14, G15, S16) changed to N12, R13, M14, N15, H16; selected by phage display from the Avd L1,2 library; source: E. coli BL21-AI, pET101/D, secreted with the OmpA signal of Bordetella avium, purified (Ni-NTA)
- stoichiometry N [5]: 4

B2: steroid-binding avidin mutant sbAvd-2 (designed binder)
chain: B1 chain with T35A, A36T, T38N
notes: selected by phage display from the sbAvd-1 L3,4 library; source: E. coli BL21-AI, pET101/D, secreted with the OmpA signal of Bordetella avium, purified (Ni-NTA)
- stoichiometry N [5]: 4
